The test system of test [1] is LINE-1 methylation in RKO cells. Kind of test: COBRA (HinfI) of LINE-1 PCR, RKO cells treated with DAC. The class given is cell-based, human. Particulars: 5 μM DAC for three days, decrease from 67%. The protocol: Hct116, RKO and SW48, colon cancer cell lines (American Type Culture Collection, Manassas, Va.), were cultured using standard methods. Cells were treated with 5 μM 5-aza-2′deoxycytidine (DAC) for three days prior to being harvested. DNA from cell lines and peripheral blood leukocytes was extracted using phenol-chloroform extraction methods well known to one with skill on the art.
Bisulfite modification of genomic DNA is known in the art (see Clark et. al, 1994). In brief, 1.5 μg prepared 10 mM hydroquinone (Sigma) and 520 μl of 3M Sodium Bisulfite (Sigma) at pH=5.0 were added and mixed. The samples were overlayed with mineral oil to prevent evaporation and incubated at 50° C. for 16 hours. The bisulfite treated DNA was isolated using Wizard DNA Clean-Up System (Promega). The DNA was eluted by 50 μl of warm water and 5.5 μl of 3M NaOH were added for 5 minutes. The DNA was ethanol precipitated with glycogen as a carrier and resuspended in 20 μl water. Bisulfite treated DNA was stored at −20° C. until ready for use. […]
In order to test whether Alu element […] LINE-1 methylation could approximate global methylation, COBRA, restriction digestion of the repetitive element PCR product, was used to quantitate DNA methylation in cell lines treated with 5-aza-2′deoxycytidine (DAC) (FIG. 3). […] Thus both assays reliably detected inhibition of methylation induced by DAC. […]

The subject of test [2] is Alu element methylation. The test can be described thus: Alu element assay (COBRA) on peripheral blood of leukemia patients treated with decitabine. Format: in vivo, human. How it is done:
FIG. 6 illustrates treatment schema of patient samples. Patients were treated as part of a Phase II study of Decitabine which was given initially a dose of 90 mg/m2 twice daily for 5 consecutive days. This dose was later decreased to 50 mg/m2 twice daily due to toxicity. In this “High” Dose Study a total dose of 500-900 mg/m2 of decitabine was given over a 5 day period. Peripheral blood specimens were collected on day 0 or 1 prior to treatment, days 2-4 during treatment, and on days 5 or 6 after the completion of treatment. In the second study, a Phase I strategy of “Low” Dose Decitabine was used. This study was designed to take advantage of Decitabine's demethylating properties. Escalating doses of Decitabine of 5, 10, 15 and 20 mg/m2 were given as ten daily doses over a two week period. The total dose delivered was only 50 to 200 mg/m2 over a 14 day period. Peripheral blood specimens were collected on day 0 or 1 prior to treatment, and during days 2-14 of treatment;
Normal colon mucosa and colon cancers were collected from consenting patients. Thirty-one matched pairs of normal colon mucosa and colon tumors were used in this study. An additional 9 normal colon samples were collected from patients undergoing colectomy for non-neoplastic reasons. DNA was isolated using standard phenol-chloroform extraction methods. DNA was bisulfite treated as described above. A previously described COBRA assay that examined Alu repetitive elements was developed as a global genome methylation assessment assay (Xiong and Laird, 1997). In brief, a 25 ul PCR reaction was carried out in 60 mM Tris-HCl pH 9.5, 15 mM Ammonium Sulfate, 5.5 mM MgCl2, 10% DMSO, 1 mM dNTP mix, 1 unit of Taq polymerase, 50 pmol of the forward primer (5′-[…]-3′) (SEQ ID NO: 1), 50 pmol of the reverse primer (5′-[…]-3′) (SEQ ID NO:2), and approximately 50 ng of bisulfite treated genomic DNA. PCR cycling conditions were 96° C. for 90 seconds, 43° C. for 60 seconds, and 72° C. for 120 seconds for 27 cycles. After the PCR reaction was complete 15 μl of MboI buffer (New England Biolabs Buffer #3) were added along with 5 units of MboI Restriction Enzyme and water to a final volume of 150 ul. The restriction digestion was incubated at 37° C. overnight to assure complete digestion. The digested PCR product was then precipitated by adding 1 μl glycogen and 2 volumes of ethanol and kept at −20° C. for at least 4 hours. Samples were then centrifuged for 30 minutes, the ethanol was poured off and the pellet was air dried prior to resuspending in a small volume (5-10 μl) of water. The digested PCR products were then run on an Agilent Biosystems DNA analyzer to quantitate the cut ([…]) and uncut ([…]) DNA. Each sample was run at least twice and the data reported is an average of all runs.
The methylation sites in Alu elements are frequently mutated from C to T by spontaneous deamination, which results in a gross underestimating of the amount of 5-methylcytosine. Therefore, control genomic DNA was double treated with SssI methylase and bisulfite treated to act as a 100% methylated control. Alu methylation is reported as a percentage of this fully methylated control standard.
Patient samples were collected from patients treated as part of two clinical studies using 5-aza-2′deoxycytidine (decitabine) as a single agent. The first study treated patients with 50-90 mg/m2 of decitabine twice daily for 5 consecutive days (See FIG. 8). The second study was a phase I study which attempted to capitalize on the demethylating properties of decitabine by using a lower dose of decitabine, 5-20 mg/m^2 once daily, for a longer period of time, 10 days over a two week period (See FIG. 8). Peripheral blood samples were collected prior to, during and after treatment. Donation of blood samples for laboratory studies was voluntary and 143 samples were collected from 41 patients participating in both studies (See Table 4). […]

These results are taken from patent US20060019270A1, “Global DNA methylation assessment using bisulfite PCR” (Board of Regents The University of Texas System, priority 2004, published 2006).

Regarding `Nc1ncn([C@H]2C[C@H](O)[C@@H](CO)O2)c(=O)n1` [decitabine, 5-aza-2′-deoxycytidine], the “LINE-1 methylation after treatment with DAC” value in test [1] is recorded as 29%. Besides, in test [2] (41 patients with leukemia, different doses, 4 to 7 days after treatment), the “average Alu demethylation” value amounted to 7.7%. Moreover, the “maximum decrease in Alu methylation seen in a single patient” value in test [2] (41 patients with leukemia, 4 to 7 days after treatment) is 31.5%. For the same compound, in test [2] (DNA methylation at days 5 to 6, both studies (FIG. 9B)), the optimal demethylating dose is reported as 15 to 20 mg/m2/day. Besides, the “correlation of Alu demethylation with clinical response” value in test [2] (High Dose Study (p=0.23)) is “demethylation did not correlate to response”; in test [2] (Low Dose Study (p=0.04 days 5-8, p=0.02 days 9-14)) it was “demethylation did correlate to response”. For the same compound, the “mean decrease of Alu element methylation” value in test [2] (High Dose study, day 5 to 8) was 10%. Besides, in test [2] (Low dose study, day 5 to 8), the “decrease in Alu element methylation” value is recorded as 5%. For the same compound, the “patients showing a paradoxical increase in DNA methylation with decitabine treatment” value in test [2] (both studies) is 12%. For the same compound, the “mean decrease in Alu methylation” value in test [2] (both studies, overall) is given as 7.7%. The “range of decrease in Alu methylation” value in test [2] (both studies, overall) is −10.3 to 31.5%. Besides, the “patients showing a decrease in Alu methylation with decitabine treatment” value in test [2] (both studies, 90.5% methylated prior to treatment) is 88%. For the same compound, the “earliest day demethylation could be detected” value in test [2] (either dosing regimen) came out at 2 days. In addition, the “time at which demethylation plateaus” value in test [2] (low dose decitabine) lay in the range of 5 to 8 days. Further, the “time for methylation to return to baseline after finishing treatment (in as little as)” value in test [2] (patients with leukemia) stood at 15 days. In test [2] (six dose levels 5-180 mg/m2/day, day 5-6), the “dose dependence of demethylation at higher doses” value was “there did not appear to be a significant increase in demethylation beyond 20 mg/m2/day”.
